How the values were obtained:
Type in all cases: functional, cell-based
SK-OV-3 = assay: Anticancer activity against human SKOV3 cells by SRB assay
A549 = assay: Anticancer activity against human A549 cells by SRB assay
SK-MEL-2 = assay: Anticancer activity against human SK-MEL-2 cells by SRB assay
XF498 = assay: Anticancer activity against human XF498 cells by SRB assay
BV-2 = assay: Antiinflammatory activity in mouse BV2 cells assessed as inhibition of lipopolysaccharide induced NO production

Structure (SMILES)	IC50 (SK-OV-3)	IC50 (A549)	IC50 (SK-MEL-2)	IC50 (BV-2)	IC50 (XF498)
COc1ccc(C[C@H]2CO[C@H](c3ccc(OC)c(OC)c3)[C@H]2CO)cc1OC	21.5 µM	20.1 µM	25.1 µM	44.4 µM	15.4 µM
COc1cc([C@@H]2c3c(cc(OC)c(O)c3OC)C[C@H](CO)[C@H]2CO)cc(OC)c1O	> 30 µM	21.2 µM	> 30 µM	113 µM	26.5 µM
COc1ccc(CC(=O)O)cc1	> 30 µM	> 30 µM	> 30 µM		28.1 µM
COc1cc([C@@H]2OC[C@@H]3[C@H]2CO[C@H]3c2cc(OC)c(O)c(OC)c2)cc(OC)c1O	> 30 µM	> 30 µM	14.5 µM	13.5 µM	8.82 µM
COc1cc([C@H]2c3c(cc(OC)c(O)c3OC)C[C@@H](CO)[C@@H]2CO)cc(OC)c1O	> 30 µM	> 30 µM	> 30 µM	69.1 µM	7.14 µM
COc1cc([C@@H]2OC[C@@H]3[C@H]2CO[C@H]3c2ccc(O[C@@H]3O[C@H](CO)[C@@H](O)[C@H](O)[C@H]3O)c(OC)c2)ccc1O	> 30 µM	> 30 µM	> 30 µM	144 µM	25.4 µM
COc1ccc([C@H](O)[C@@H](CO)Oc2c(OC)cc([C@@H]3Oc4c(OC)cc(CCCO)cc4[C@H]3CO)cc2OC)cc1OC [BERBIKONOL]	> 30 µM	> 30 µM	27.3 µM	90.9 µM	19.3 µM
COC(=O)[C@H](CO)c1cc(OC)c(O)c(OC)c1 [BERFUSSINOL]	> 30 µM	> 30 µM	27.2 µM		> 30 µM
COc1cc([C@@H]2c3cc4c(cc3[C@@H](O[C@@H]3O[C@@H]5CO[C@@H](C)O[C@H]5[C@H](O)[C@H]3O)[C@H]3COC(=O)[C@H]23)OCO4)cc(OC)c1O [ETOPOSIDE]	1.81 µM				
CNC(=N)NCCC[C@H](N)C(=O)O [TILARGININE]				17.1 µM	

Now from value to compound, other results behind:

IC50 (SK-OV-3)	IC50 (A549)	IC50 (SK-MEL-2)	IC50 (BV-2)	Structure (SMILES)	IC50 (XF498)
> 30 µM	> 30 µM	> 30 µM	58.5 µM	COc1cc([C@@H](O)[C@@H](CO)Oc2ccc(CCCO)cc2OC)ccc1O	26.6 µM
> 30 µM	> 30 µM	> 30 µM	201 µM	COc1cc(C[C@@H](CO)[C@](O)(CO)Cc2ccc(O)c(OC)c2)ccc1O	27.6 µM
> 30 µM	> 30 µM	> 30 µM		COc1cc(C(=O)CCO)cc(OC)c1O	24.3 µM
> 30 µM	> 30 µM	> 30 µM		COc1cc(C(=O)CCO)ccc1O	28.4 µM
> 30 µM	> 30 µM	21.5 µM	87.6 µM	COc1cc(C[C@@H](CO)[C@H](CO)Cc2ccc(O)c(OC)c2)ccc1O [(+)-SECOISOLARICIRESINOL]	18.8 µM
> 30 µM	20.2 µM	24.9 µM	152 µM	COc1cc([C@@H]2c3cc(O)c(OC)cc3C[C@H](CO)[C@H]2CO)ccc1O [(-)-ISOLARICIRESINOL]	22.8 µM
> 30 µM	> 30 µM	26.6 µM	26.2 µM	COc1cc([C@@H]2OC[C@H]3[C@@H]2CO[C@H]3c2ccc(O)c(OC)c2)ccc1O [(-)-PINORESINOL]	13.3 µM
> 30 µM	21.2 µM	> 30 µM		COc1cc(/C=C/C=O)ccc1O [CONIFERYL ALDEHYDE]	> 30 µM
> 30 µM	22.4 µM	23.3 µM	28.8 µM	COc1cc([C@H]2Oc3c(OC)cc(CCCO)cc3[C@@H]2CO)ccc1O [DIHYDRODEHYDRODICONIFERY ALCOHOL]	13.4 µM
> 30 µM	24.5 µM	> 30 µM	51.8 µM	COc1cc(C[C@H]2CO[C@H](c3ccc(O)c(OC)c3)[C@H]2CO)ccc1O [LARICIRESINOL]	11.7 µM
> 30 µM	23.8 µM	> 30 µM	94.5 µM	COc1cc(C[C@H]2COC(=O)[C@@H]2Cc2ccc(O)c(OC)c2)ccc1O [MATAIRESINOL]	23.7 µM
> 30 µM	> 30 µM	> 30 µM		COc1cc(C(=O)O)ccc1O [VANILLIC ACID]	> 30 µM

Source: ChEMBL document CHEMBL1759886, “Biological evaluation of phenolic constituents from the trunk of Berberis koreana” (Bioorg Med Chem Lett, 2011)
